# Laboratory results published in patent publication US11958813B2, “Uracil compound containing carboxylate fragment, preparation method therefor, and herbicidal composition and use thereof” (JIANGSU FLAG CHEMICAL INDUSTRY CO., LTD., priority 2021, dated 2024).
# Tests used:
# Assay in all cases: Greenhouse herbicidal activity test, post-emergence
# Assay type in all cases: in vivo
# Alopecurus japonicus = details: determined 21 days later; for inhibition at 7.5 g/ha / inhibition at 15 g/ha: Alopecurus japonicus, 504 h, read-out: fresh weight inhibition rate, Alopecurus japonicus
# Excerpt: (§1) A herbicidal activity test method for the compounds of the present invention was as follows:
# (§2) Post-emergence: an appropriate quantity of seeds of gramineous weeds (Echinochloa crusgalli, Eleusine indica, Digitaria sanguinalis, Alopecurus japonicus, Beckmannia syzigachne, Leptochloa chinensis, Polypogon fugax, Alopecurus aequalis, Lolium multiflorum, and Poa annua), broad-leaved weeds (Eclipta prostrata, Amaranthus retroflexus, Brassica juncea, Malachium aquaticum, Conyza canadensis, and Sesbania cannabina), and Cyperus iria were sown in plastic pots having a diameter of 7 cm and holes at the bottom and filled with nutrient soil (sandy soil, pH 6.1, organic matter 1%) respectively, the seeds were covered with an appropriate amount of soil after being sown, then the soil was wetted with water from the bottom, the seeds were cultured in a constant-temperature illuminated culture room until a 2-4 leaf stage, and stems and leaves underwent spray treatment. After the treatment, the test materials were placed in a laboratory and cultured in the constant-temperature illuminated culture room after the liquid was naturally dry in the shade, and results were determined 21 days later.
# (§3) According to the foregoing test method, a parallel experiment was carried out on herbicidal activities of some compounds of the general formula (I), the compound Butafenacil (compound 47 in the patent specification) specifically disclosed in U.S. Pat. No. 5,183,492A, and the compound CK (compound 1 in the patent specification) specifically disclosed in U.S. Pat. No. 5,183,492A, at application doses of 7.5 g a.i./ha and 15 g a.i./ha.
# Polypogon fugax = details: determined 21 days later; for inhibition at 7.5 g/ha / inhibition at 15 g/ha: Polypogon fugax, 504 h, read-out: fresh weight inhibition rate, Polypogon fugax
# Excerpt: as §1, §2, §3
# Sesbania cannabina = details: determined 21 days later; for inhibition at 7.5 g/ha / inhibition at 15 g/ha: Sesbania cannabina, 504 h, read-out: fresh weight inhibition rate, Sesbania cannabina
# Excerpt: as §1, §2, §3
SMILES,inhibition at 7.5 g/ha (Alopecurus japonicus; dose 7.5 g a.i./ha),inhibition at 15 g/ha (Alopecurus japonicus; dose 15 g a.i./ha),inhibition at 7.5 g/ha (Polypogon fugax; dose 7.5 g a.i./ha),inhibition at 15 g/ha (Polypogon fugax; dose 15 g a.i./ha),inhibition at 7.5 g/ha (Sesbania cannabina; dose 7.5 g a.i./ha),inhibition at 15 g/ha (Sesbania cannabina; dose 15 g a.i./ha),"fresh weight inhibition rate, Alopecurus japonicus (Alopecurus japonicus; dose 7.5 g a.i./ha)","fresh weight inhibition rate, Alopecurus japonicus (Alopecurus japonicus; dose 15 g a.i./ha)","fresh weight inhibition rate, Polypogon fugax (Polypogon fugax; dose 7.5 g a.i./ha)","fresh weight inhibition rate, Polypogon fugax (Polypogon fugax; dose 15 g a.i./ha)","fresh weight inhibition rate, Sesbania cannabina (Sesbania cannabina; dose 7.5 g a.i./ha)","fresh weight inhibition rate, Sesbania cannabina (Sesbania cannabina; dose 15 g a.i./ha)"
"C=CCOC(=O)C(C)(C)OC(=O)c1cc(-n2c(=O)cc(C(F)(F)F)n(C)c2=O)ccc1Cl [Butafenacil, reference compound]",< 55%,< 55%,< 55%,55 to 70%,55 to 70%,70 to 85%,,,,,,
COCCOC(=O)C1(OC(=O)c2cc(-n3c(=O)cc(C(F)(F)F)n(C)c3=O)c(F)cc2Cl)CC1 [Compound 258],,,,,,,A (A indicates that the inhibition rate was greater than or equal to 85% to 100%),A (A indicates that the inhibition rate was greater than or equal to 85% to 100%),A (A indicates that the inhibition rate was greater than or equal to 85% to 100%),A (A indicates that the inhibition rate was greater than or equal to 85% to 100%),A (A indicates that the inhibition rate was greater than or equal to 85% to 100%),A (A indicates that the inhibition rate was greater than or equal to 85% to 100%)
COCCOC(=O)C(C)(C)OC(=O)c1cc(-n2c(=O)cc(C(F)(F)F)n(C)c2=O)c(F)cc1Cl [Compound 207],,,,,,,A (A indicates that the inhibition rate was greater than or equal to 85% to 100%),A (A indicates that the inhibition rate was greater than or equal to 85% to 100%),A (A indicates that the inhibition rate was greater than or equal to 85% to 100%),A (A indicates that the inhibition rate was greater than or equal to 85% to 100%),A (A indicates that the inhibition rate was greater than or equal to 85% to 100%),A (A indicates that the inhibition rate was greater than or equal to 85% to 100%)
COCCOC(=O)COC(=O)c1cc(-n2c(=O)cc(C(F)(F)F)n(C)c2=O)c(F)cc1Cl [Compound 3],,,,,,,B (B indicates that the inhibition rate was greater than or equal to 70% to less than 85%),A (A indicates that the inhibition rate was greater than or equal to 85% to 100%),B (B indicates that the inhibition rate was greater than or equal to 70% to less than 85%),A (A indicates that the inhibition rate was greater than or equal to 85% to 100%),A (A indicates that the inhibition rate was greater than or equal to 85% to 100%),A (A indicates that the inhibition rate was greater than or equal to 85% to 100%)
C=CCOCCOC(=O)C(C)(C)OC(=O)c1cc(-n2c(=O)cc(C(F)(F)F)n(C)c2=O)c(F)cc1Cl [Compound 214],,,,,,,A (A indicates that the inhibition rate was greater than or equal to 85% to 100%),A (A indicates that the inhibition rate was greater than or equal to 85% to 100%),A (A indicates that the inhibition rate was greater than or equal to 85% to 100%),A (A indicates that the inhibition rate was greater than or equal to 85% to 100%),A (A indicates that the inhibition rate was greater than or equal to 85% to 100%),A (A indicates that the inhibition rate was greater than or equal to 85% to 100%)
"COC(=O)C(C)OC(=O)c1cc(-n2c(=O)cc(C(F)(F)F)n(C)c2=O)c(F)cc1Cl (stereo not drawn) [CK, reference compound]",< 55%,55 to 70%,< 55%,55 to 70%,55 to 70%,70 to 85%,,,,,,
